These are literature values, as cited in patent publication US20230240962A1, “METHOD FOR DYEING KERATINOUS MATERIAL, COMPRISING THE USE OF AN ORGANOSILICON COMPOUND, AN ALKYL(POLY)GLYCOSIDE, A DYEING COMPOUND AND A POST-TREATMENT AGENT” (Henkel AG & Co. KGaA, priority 2020, published 2023).

The conditions of this data set: 25° C.

As for `O=C([O-])C1=NN(c2ccc(S(=O)(=O)[O-])cc2)C(=O)C1N=Nc1ccc(S(=O)(=O)[O-])cc1.[Na+].[Na+].[Na+]` (centres unmarked) [Acid Yellow 23, trisodium salt of 4,5-dihydro-5-oxo-1-(4-sulfophenyl)-4-((4-sulfophenyl)azo)-1H-pyrazole-3-carboxylic acid], the “solubility in water (in words)” value is given as “highly soluble”.

`Nc1cc(S(=O)(=O)[O-])cc2cc(S(=O)(=O)[O-])c(N=Nc3ccccc3)c(O)c12.[Na+].[Na+]` [Acid Red 33, disodium salt of 5-amino-4-hydroxy-3-(phenylazo)-naphthalene-2,7-disulphonate]: the solubility in water is 2.5 g/L.

In the case of `O=C([O-])c1c(Cl)c(Cl)c(Cl)c(Cl)c1-c1c2c(Br)cc(=O)c(Br)c-2oc2c(Br)c(O)cc(Br)c12.O=C([O-])c1c(Cl)c(Cl)c(Cl)c(Cl)c1-c1c2c(Br)cc(=O)c(Br)c-2oc2c(Br)c(O)cc(Br)c12.[Na+].[Na+]` [Acid Red 92, disodium salt of 3,4,5,6-tetrachloro-2-(1,4,5,8-tetrabromo-6-hydroxy-3-oxoxanthen-9-yl)benzoic acid], the solubility in water entry is recorded as “greater than 10 g/L”.

Turning to `O=S(=O)([O-])c1ccc(N=Nc2c(O)ccc3ccccc23)cc1.[Na+]` [Acid Orange 7, sodium salt of 4-[(2-hydroxy-1-naphthyl)azo]benzene sulphonate], the solubility in water result is listed as “more than 7 g/L”.

For `CCN(Cc1cccc(S(=O)(=O)[O-])c1)c1ccc(C(=C2C=CC(=[N+](CC)Cc3cccc(S(=O)(=O)[O-])c3)C=C2)c2ccccc2S(=O)(=O)[O-])cc1.[Na+].[Na+]` [Acid Blue 9], the solubility in water entry is on record as “more than 20 wt. %”.
